Laboratory results: BindingDB's records for doi:10.7270/Q2QZ28D7 (Burnham Center For Chemical Genomics, 2009)

Biological target: his6-Siah1 (aa 81-282) (Homo sapiens, UniProt Q8IUQ4)
Assay: Siah-1 peptide-binding antagonists, primary screen, biochemical, fluorescence polarization, rhodamine-plectin, uHTS (AID 1817)
Conditions: not given

his6-Siah1 (aa 81-282), sequence (Q8IUQ4 whole entry, looked up, the tested form may be a part): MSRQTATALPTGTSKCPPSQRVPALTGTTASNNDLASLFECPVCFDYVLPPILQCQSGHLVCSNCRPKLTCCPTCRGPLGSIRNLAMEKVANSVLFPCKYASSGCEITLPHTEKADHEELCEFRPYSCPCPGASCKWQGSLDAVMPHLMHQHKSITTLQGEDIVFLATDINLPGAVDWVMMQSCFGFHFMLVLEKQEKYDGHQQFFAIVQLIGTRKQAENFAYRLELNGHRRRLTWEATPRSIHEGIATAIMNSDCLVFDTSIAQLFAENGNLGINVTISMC

SMILES	IC50
C[N+]1(CCNC(=O)CN=O)CCCCC1	> 200 µM
CCOC(=O)C1(C)CC(=Nc2ccc(O)cc2)C(=O)N1c1ccc(O)cc1 (centres undefined)	> 200 µM
CC1(C)Cc2c(sc(N=CN3CCCCCC3)c2C#N)C(C)(C)N1	> 200 µM
COc1cc(NS(=O)(=O)c2ccc(NC(=S)NC(=O)C=Cc3ccc(F)cc3)cc2)ncn1	> 200 µM
CN1/C(=C\C=C\C2=[N+](C)c3ccc4ccccc4c3C2(C)C)C(C)(C)c2ccccc21 [1,1,3-trimethyl-2-[(E,3Z)-3-(1,3,3-trimethyl-2-indolylidene)prop-1-enyl]benzo[e]indol-3-ium;perchlorate]	> 200 µM
CN(Cc1c(C(=O)NN=Cc2ccc(F)cc2)nnn1-c1nonc1N)C1CCCCC1 [1-(4-amino-1,2,5-oxadiazol-3-yl)-5-[[cyclohexyl(methyl)amino]methyl]-N-[(4-fluorophenyl)methylideneamino]triazole-4-carboxamide]	> 200 µM
Fc1ccc(C=NNC(=S)Nc2cccnc2)cc1F [1-[[3,4-bis(fluoranyl)phenyl]methylideneamino]-3-pyridin-3-yl-thiourea]	> 200 µM
CCN(CC)CCOC(=O)c1ccc(N=CC(C#N)c2nc(-c3cc4ccccc4oc3=O)cs2)cc1 (centres undefined) [2-(diethylamino)ethyl 4-[[(Z)-2-cyano-2-[4-(2-oxochromen-3-yl)-1,3-thiazol-2-yl]ethenyl]amino]benzoate]	11.2 µM
CCOC(=O)C1=C(C)N=c2sc(=Cc3ccc(OCC(=O)O)cc3)c(=O)n2C1c1ccc(Cl)cc1 (centres undefined) [2-[4-[[5-(4-chlorophenyl)-6-ethoxycarbonyl-7-methyl-3-oxidanylidene-5H-[1,3]thiazolo[3,2-a]pyrimidin-2-ylidene]methyl]phenoxy]ethanoic acid]	> 200 µM
CCN(CC)c1ccc(C=c2sc3nnc(-c4ccccc4Cl)n3c2=O)cc1 [3-(2-chlorophenyl)-6-[4-(diethylamino)benzylidene][1,3]thiazolo[2,3-c][1,2,4]triazol-5(6H)-one]	> 200 µM
COC(=O)c1cccc(Cn2c(Cl)c(C=NNC(=O)c3ccccc3Cl)sc2=O)c1 [3-{4-Chloro-5-[(2-chloro-benzoyl)-hydrazonomethyl]-2-oxo-thiazol-3-ylmethyl}-benzoic acid methyl ester]	> 200 µM
O=C(Nc1ccc(Br)cc1)c1ccc(-n2c(O)c3c(c2O)CC=CC3)cc1 [4-[1,3-bis(oxidanylidene)-3a,4,7,7a-tetrahydroisoindol-2-yl]-N-(4-bromophenyl)benzamide]	18.6 µM
CC(C)(C)c1cc(-c2cs/c(=N\c3ccccc3)n2Cc2ccc(C(=O)O)cc2)cc(C(C)(C)C)c1O [4-[[4-(3,5-ditert-butyl-4-oxidanyl-phenyl)-2-phenylazanyl-1,3-thiazol-3-ium-3-yl]methyl]benzoic acid;bromide]	> 200 µM
O=C(NN=Cc1cccc(Br)c1)c1ccc(Br)cc1 [4-bromanyl-N-[(3-bromophenyl)methylideneamino]benzamide]	> 200 µM
COc1ccc(NC2=NC(=O)SC2=Cc2ccc(N(C)C)cc2)cc1 [(5Z)-5-[[4-(dimethylamino)phenyl]methylidene]-4-(4-methoxyanilino)-1,3-thiazol-2-one]	> 200 µM
CCOC(=O)C(C#N)=c1sc(=C2C=Cc3ccccc3N2CC)c(=O)n1CC [MLS000534135]	> 200 µM
O=C(NN=Cc1ccc(OC(=O)c2cccs2)cc1)c1cccc(F)c1 [MLS000576933]	> 200 µM
O=C(O)c1ccc(C=NNC(=O)c2ccc(CN3c4cccc5cccc(c45)S3(=O)=O)cc2)cc1 [MLS001003216]	> 200 µM
CC[n+]1c(/C=C/N(C)c2ccccc2)sc2ccc(Cl)cc21 [N-[(E)-2-(5-chloro-3-ethyl-1,3-benzothiazol-3-ium-2-yl)ethenyl]-N-methylaniline;perchlorate]	> 200 µM
CCN(CC)c1ccc(C=NC(C#N)C(=N)C#N)cc1 (centres undefined) [SMR000023871]	> 200 µM
Cc1ccc(S(=O)(=O)N[N-][C+]2C3CC4CC(C3)CC2C4)cc1[N+](=O)[O-] [SMR000241699]	> 200 µM
Cc1cc(C)nc(NN=C2C(=O)N(Cc3ccc(Cl)cc3)c3ccccc32)n1 [SMR000248022]	> 200 µM
C=c1c(C#N)c2[nH]c(N)c(C#N)c(C)c-2c1=Cc1ccc(-c2ccccc2C(=O)O)o1 [SMR000277284]	20.6 µM
CCN(CC)CCOC(=O)c1ccc(N=CC(C#N)c2nc(-c3ccc(OC)c(OC)c3)cs2)cc1 (centres undefined) [SMR000434079]	12.5 µM
COC(=O)c1cc(NC(=O)c2ccccc2)c(=O)oc1CC=Nc1ccc(Oc2ccccc2)cc1 [methyl 5-benzamido-6-oxidanylidene-2-[(E)-2-[(4-phenoxyphenyl)amino]ethenyl]pyran-3-carboxylate]	> 200 µM

Same assay, conditions: inactive by the depositor's call

SMILES	IC50
CCCCNc1c2c3c(cccc3n(C)c1=O)C(=O)c1ccccc1-2 [1-Butylamino-3-methyl-3H-naphtho[1,2,3-de]quinoline-2,7-dione]	23.1 µM
CC1(C)OC(C)(C)C(=CNc2ccc(O)cc2)C1=O [4-[(4-hydroxyanilino)methylene]-2,2,5,5-tetramethyldihydro-3(2H)-furanone]	48.2 µM

Biological target: not listed separately
Assay: PubChem AID 1817
Conditions: not given

SMILES	IC50
CCN1C(=O)C(=CNc2ccc(N3CCOCC3)cc2)C(=O)N(CC)C1=S	200 µM
O=C1CCCC(=O)C1=NNc1ccc(C(=O)O)cc1 [SMR000370092]	200 µM
